Our source for the IC50 and inhibition values is ChEMBL document CHEMBL5360530, “Structure activity relationship (SAR) and anticancer activity of pyrrolidine derivatives: Recent developments and future prospects (A review)” (Eur J Med Chem, 2023).

One test relates to FaDu. Put plainly: Anticancer activity against human FaDu cells assessed as cell growth inhibition measured after 48 hrs. Conditions: Homo sapiens, FaDu, 48 h. The class given is functional, cell-based.
The subject of the next test is PC-3. As to the kind of experiment: Anticancer activity against human PC-3 cells assessed as cell growth inhibition measured after 48 hrs by MTT assay. The settings on record: PC-3, 48 h. It is filed as functional, cell-based.
In a further test the test system is HCT-116. Put plainly: Anticancer activity against human HCT-116 cells assessed as cell growth inhibition measured after 48 hrs by MTT assay. The class given is functional, cell-based. Conditions: HCT-116, 48 h. Background: Tetrazolium assays rely on reduction of a dye to a coloured formazan, in cell work by metabolically active cells.
The subject of test [1] is HepG2. Put plainly: Anticancer activity against human HepG2 cells assessed as cell growth inhibition measured after 48 hrs by MTT assay. Conditions: HepG2, 48 h. The class given is functional, cell-based.
The test system of test [2] is MCF7. Put plainly: Anticancer activity against human MCF7 cells assessed as cell growth inhibition measured after 48 hrs by MTT assay. The class given is functional, cell-based. Conditions: MCF7, 48 h.
Test [3] relates to MCF7. Put plainly: Anticancer activity against human MCF7 cells assessed as cell growth inhibition at 100 uM by MTT assay relative to control. It is filed as functional.
Another test has as its system A549. As to the kind of experiment: Anticancer activity against human A549 cells assessed as cell growth inhibition at 100 uM by MTT assay relative to control. The class given is functional.
Another test has as its system A-431. As to the kind of experiment: Anticancer activity against human A-431 cells assessed as cell growth inhibition at 100 uM by MTT assay relative to control. It is filed as functional.
For test [4], the system named is HepG2. As to the kind of experiment: Anticancer activity against human HepG2 cells assessed as cell growth inhibition at 100 uM by MTT assay relative to control. It is filed as functional.

Values after ≈ are worked out from the molar mass of the structure shown. Where only a bound is given, the exact number is not on record here.

For orientation: IC50 means the concentration at which inhibition is half-maximal. The inhibition is how much of the control response was suppressed.

Consider `O=C1Nc2ccccc2C12N[C@H](Cc1ccccc1)[C@@H](c1ccc(Br)cc1)[C@@]21CN(/C=C/c2ccccc2)C/C(=C\c2ccc(Br)cc2)C1=O` (stereo partly drawn), for which the IC50 in the test on FaDu is at least 19 µM.
Regarding `O=C(/C=C/c1cccs1)[C@H]1[C@H](c2cccs2)[C@H]2CSCN2[C@]12C(=O)Nc1ccccc12`, the IC50 with PC-3 is at least 0.8 µM; in the test on HCT-116 it was 1.57 µM; in the test with HepG2 [1] it was at least 1.5 µM.
For `O=C(/C=C/c1ccco1)[C@H]1[C@H](c2ccco2)C2CSCN2C12C(=O)Nc1c(Br)cc(Br)cc12` (stereo partly drawn), the figures for the IC50 with HCT-116, with MCF7 [2] and in the test with HepG2 [1] were 1.57 µg/mL, 2.5 µg/mL (≈ 4.24 µM) and at least 0.8 µM, respectively.
Consider `CCCCCCCCCCCCCCCC(=O)N1CC[C@@H](OP(=O)([O-])OCC[N+](C)(C)C)C1`, for which the inhibition at 100 µM is 22.6% with MCF7 [3], 4.7% in the test on A549, 0.3% in the test with A-431 and 10.1% in the test on HepG2 [4].
`Cc1ccc([C@@H]2[C@H]3CSCN3[C@]3(C(=O)Nc4ccccc43)[C@H]2C(=O)/C=C/c2ccccc2)cc1`: the IC50 with PC-3 is at least 0.8 µM; with HCT-116, 1.57 µM; in the test on HepG2 [1], at least 1.5 µM.
The matching figures for `O=C(/C=C/c1ccc2ccccc2c1)[C@H]1[C@H](c2ccc3ccccc3c2)[C@H]2CSCN2[C@]12C(=O)Nc1ccccc12`: at least 0.8 µM, 1.57 µM and at least 1.5 µM.
On to `O=C1Nc2ccccc2C12N[C@H](Cc1ccccc1)[C@@H](c1ccc(Cl)cc1Cl)[C@@]21CN(/C=C/c2ccccc2)C/C(=C\c2ccc(Cl)cc2Cl)C1=O` (stereo partly drawn), for which the IC50 with FaDu was determined as 22 µM.
On to `CCCCCCCC/C=C\CC(=O)N1CCC[C@@H]1COP(=O)([O-])OCC[N+](C)(C)C`, for which the inhibition at 100 µM in the test on MCF7 [3] was 93%; with A549 it was 4.7%; in the test on A-431, 0.3%; with HepG2 [4], 10.1%.
For the compound `CCCCCCCCCCCCCCCCCC/C=C\CCCCCCCC(=O)N1CCC[C@H]1OP(=O)([O-])OCC[N+](C)(C)C`, the inhibition at 100 µM was determined as 22.6% in the test on MCF7 [3], 4.7% in the test with A549, 0.3% with A-431 and 10.1% with HepG2 [4].
`Cc1ccc(/C=C/C(=O)[C@H]2[C@H](c3ccc(C)cc3)[C@H]3CSCN3[C@]23C(=O)Nc2ccccc23)cc1`: the figures for the IC50 with PC-3, with HCT-116 and with HepG2 [1] were at least 0.8 µM, 1.57 µM and at least 1.5 µM, respectively.
For `O=C(/C=C/c1ccc(F)cc1)[C@H]1[C@H](c2ccc(F)cc2)[C@H]2CSCN2[C@]12C(=O)Nc1ccc(Cl)cc12`, the IC50 in the test on PC-3 is at least 0.8 µM; with HCT-116, 1.57 µM; in the test with HepG2 [1], at least 1.5 µM.
Take `CCCCCCCC/C=C\CC(=O)N1CCC[C@H]1COP(=O)([O-])OCC[N+](C)(C)C`: the inhibition at 100 µM stood at 91% in the test on MCF7 [3], 4.7% in the test on A549, 0.3% with A-431 and 10.1% in the test on HepG2 [4].
The corresponding values for `CCCCCC/C=C\CCCCCCCC(=O)N1CC[C@H](OP(=O)([O-])OCC[N+](C)(C)C)C1` are 22.6%, 4.7%, 0.3% and 10.1%.
The corresponding values for `CCCCCC/C=C\CCCCCCCC(=O)N1CCC[C@H]1OP(=O)([O-])OCC[N+](C)(C)C` are 22.6%, 4.7%, 0.3% and 10.1%.
Turning to `CCCCCCCCCCCCCCCCCC/C=C\CCCCCCCC(=O)N1CCC[C@@H]1OP(=O)([O-])OCC[N+](C)(C)C`, the inhibition at 100 µM came out at 22.6% in the test with MCF7 [3], 4.7% in the test on A549, 0.3% with A-431 and 10.1% in the test with HepG2 [4].
The matching figures for `CCCCCCCCCCCCCCCCC/C=C\CCCCCCCC(=O)N1CC[C@H](OP(=O)([O-])OCC[N+](C)(C)C)C1`: 22.6%, 4.7%, 0.3% and 10.1%.
Regarding `CCCCCCCC/C=C\CC(=O)N1CC[C@H](OP(=O)([O-])OCC[N+](C)(C)C)C1`, the inhibition at 100 µM came out at 22.6% in the test on MCF7 [3], 4.7% with A549, 0.3% with A-431 and 10.1% in the test on HepG2 [4].
Regarding `CCCCCCCCCCCCCCCC(=O)N1CC[C@H](COP(=O)([O-])OCC[N+](C)(C)C)C1`, the inhibition at 100 µM in the test with MCF7 [3] was found to be 74.6%; with A549, 71.6%; in the test with A-431 it was 74.2%; in the test with HepG2 [4] it was 57.3%.
In the case of `COc1ccc(/C=C/C(=O)[C@H]2[C@H](c3ccc(OC)cc3)[C@H]3CSCN3[C@]23C(=O)Nc2ccccc23)cc1`, the IC50 in the test on PC-3 is at least 0.8 µM; in the test with HCT-116 it was 1.57 µM; with HepG2 [1] it was at least 1.5 µM.
With `O=C(/C=C/c1ccc(F)cc1)[C@H]1[C@H](c2ccc(F)cc2)[C@H]2CSCN2[C@]12C(=O)Nc1ccccc12`, the IC50 was at least 0.8 µM in the test with PC-3, 1.57 µM in the test on HCT-116 and at least 1.5 µM in the test on HepG2 [1].
Regarding `CCCCCCCCCCCCCCCCC/C=C\CCCCCCCC(=O)N1CC[C@@H](OP(=O)([O-])OCC[N+](C)(C)C)C1`, the inhibition at 100 µM was 22.6% with MCF7 [3], 4.7% with A549, 0.3% in the test on A-431 and 10.1% with HepG2 [4].
`Cc1cccc(/C=C2\CN(/C=C/c3ccccc3)C[C@]3(C2=O)[C@H](c2cccc(C)c2)[C@@H](Cc2ccccc2)NC32C(=O)Nc3ccccc32)c1` (stereo partly drawn): the IC50 with FaDu amounted to 21.8 µM.
As for `O=C(/C=C/c1ccco1)[C@H]1[C@H](c2ccco2)[C@H]2CSCN2[C@]12C(=O)Nc1ccccc12`, the IC50 was at least 0.8 µM in the test with PC-3, 1.57 µM in the test with HCT-116 and at least 1.5 µM with HepG2 [1].
In the case of `CCCCCC/C=C\CCCCCCCC(=O)N1CCC[C@@H]1OP(=O)([O-])OCC[N+](C)(C)C`, the inhibition at 100 µM with MCF7 [3] was 22.6%; in the test with A549, 4.7%; in the test with A-431, 0.3%; in the test on HepG2 [4], 10.1%.
As to `O=C1Nc2ccccc2C12N[C@H](Cc1ccccc1)[C@@H](c1ccccc1Cl)[C@@]21CN(/C=C/c2ccccc2)C/C(=C\c2ccccc2Cl)C1=O` (stereo partly drawn), the IC50 with FaDu is at least 19 µM.
In the case of `O=C(/C=C/c1c(Cl)cccc1Cl)[C@H]1[C@H](c2c(Cl)cccc2Cl)[C@H]2CSCN2[C@]12C(=O)Nc1ccccc12`, the IC50 in the test on PC-3 is at least 0.8 µM; in the test with HCT-116, 1.57 µM; with HepG2 [1], at least 1.5 µM.
Turning to `O=C1Nc2ccccc2C12N[C@H](Cc1ccccc1)[C@@H](c1ccccc1)[C@@]21CN(/C=C/c2ccccc2)C/C(=C\c2ccccc2)C1=O` (stereo partly drawn), the IC50 in the test with FaDu amounted to 19 µM.
In the case of `CCCCCC/C=C\CCCCCCCC(=O)N1CC[C@@H](OP(=O)([O-])OCC[N+](C)(C)C)C1`, the inhibition at 100 µM with MCF7 [3] is 22.6%; in the test with A549, 4.7%; in the test on A-431 it was 0.3%; with HepG2 [4], 10.1%.
For the compound `O=C(/C=C/c1cccc(Br)c1)[C@H]1[C@H](c2cccc(Br)c2)[C@H]2CSCN2[C@]12C(=O)Nc1ccccc12`, the IC50 in the test on PC-3 is at least 0.8 µM; in the test with HCT-116 it was 1.57 µM; in the test with HepG2 [1] it was at least 1.5 µM.
Take `O=C1Nc2ccccc2C12N[C@H](Cc1ccccc1)[C@@H](c1ccccc1Br)[C@@]21CN(/C=C/c2ccccc2)C/C(=C\c2ccccc2Br)C1=O` (stereo partly drawn): in the test on FaDu, the IC50 is at least 19 µM.
Regarding `CCCCCCCCCCCCCCCC(=O)N1CCC[C@@H]1OP(=O)([O-])OCC[N+](C)(C)C`, the inhibition at 100 µM in the test on MCF7 [3] is 22.6%; in the test with A549, 4.7%; in the test on A-431 it was 0.3%; with HepG2 [4], 10.1%.
As for `O=C(/C=C/c1ccc(C(F)(F)F)cc1)[C@H]1[C@H](c2ccc(C(F)(F)F)cc2)[C@H]2CSCN2[C@]12C(=O)Nc1ccccc12`, the IC50 was 1 µM with PC-3 and at least 1.5 µM in the test on HepG2 [1].
Turning to `O=C1Nc2ccccc2C12N[C@H](Cc1ccccc1)[C@@H](c1ccc(Cl)cc1)[C@@]21CN(/C=C/c2ccccc2)C/C(=C\c2ccc(Cl)cc2)C1=O` (stereo partly drawn), the IC50 in the test with FaDu was at least 19 µM.
Same read-out and setting: to `Cc1ccccc1/C=C1\CN(/C=C/c2ccccc2)C[C@]2(C1=O)[C@H](c1ccccc1C)[C@@H](Cc1ccccc1)NC21C(=O)Nc2ccccc21` (stereo partly drawn) belongs 23.5 µM.
For the compound `CCCCCCCC/C=C\CC(=O)N1CC[C@@H](COP(=O)([O-])OCC[N+](C)(C)C)C1`, the inhibition at 100 µM with MCF7 [3] amounted to 92.9%; with A549 it was 58.7%; with A-431, 67.3%; with HepG2 [4], 72.8%.
As for `O=C(/C=C/c1ccc(Br)cc1)[C@H]1[C@H](c2ccc(Br)cc2)[C@H]2CSCN2[C@]12C(=O)Nc1ccccc12`, the IC50 in the test with PC-3 is at least 0.8 µM; in the test with HCT-116, 3 µM; with HepG2 [1] it was 0.8 µM.
Turning to `O=C(/C=C/c1ccc(F)cc1)[C@H]1[C@H](c2ccc(F)cc2)[C@H]2CSCN2[C@]12C(=O)Nc1ccc(Br)cc12`, the IC50 in the test with PC-3 was at least 0.8 µM; in the test on HepG2 [1] it was 0.8 µM.
`O=C(/C=C/c1ccc(F)cc1)[C@H]1[C@H](c2ccc(F)cc2)C2CSCN2C12C(=O)Nc1c(Br)cc(Br)cc12` (stereo partly drawn): the IC50 in the test on HCT-116 is 1.57 µg/mL; with MCF7 [2], 2.5 µg/mL (≈ 3.87 µM); in the test on HepG2 [1] it was at least 0.8 µM.
For the compound `CCCCCCCCCCCCCCCC(=O)N1CCC[C@H]1OP(=O)([O-])OCC[N+](C)(C)C`, the inhibition at 100 µM in the test on MCF7 [3] is 22.6%; in the test on A549, 71.6%; in the test on A-431, 0.3%; in the test with HepG2 [4], 10.1%.
Regarding `CCCCCCCCCCCCCCCCOP(=O)([O-])OCC[N+](C)(C)C` [MILTEFOSINE], the inhibition at 100 µM with MCF7 [3] was 69.4%; in the test on A-431, 35.4%; with HepG2 [4] it was 31.3%.
